Results reported in PMC5365645, “Preclinical Pharmacokinetics and Pharmacodynamic Target of SCY-078, a First-in-Class Orally Active Antifungal Glucan Synthesis Inhibitor, in Murine Models of Disseminated Candidiasis” (Antimicrobial Agents and Chemotherapy, 2017).
Read-outs that look alike come from different tables or passages of the source. *1 amine or outer side, *2 acyl side, *3 side chain or, on linkers, in order; H or OH if unused. Where a SMILES comes first, the peptide text is derived from it. Bridges are numbered along the chain shown (N, C = ends). [ ]: non-standard residue; d: D form. The star is where a group is joined. hTyr(3S-OH,4S-OH,3'-OSO3H) = N[C@H](C(=O)O)[C@H](O)[C@@H](O)c1ccc(O)c(OS(=O)(=O)O)c1; pTerphenylCO(4''-OnC5H11) = CCCCCOc1ccc(-c2ccc(-c3ccc(C(=O)*)cc3)cc2)cc1; Orn(4R-OH,5R-OH) = O=C([C@H](C[C@@H](O)[C@@H](O)N[*:3])N[*:1])[*:2]; hTyr(3S-OH,4S-OH) = N[C@H](C(=O)O)[C@H](O)[C@@H](O)c1ccc(O)cc1; Pro(3S-OH,4S-Me) = C[C@H]1CN[C@H](C(=O)O)[C@H]1O; X1 = CCCCCOc1ccc(-c2cc(-c3ccc(C(=O)*)cc3)no2)cc1; Gln(3R-OH) = NC(=O)C[C@@H](O)[C@H](N)C(=O)O; Hyp = O=C(O)[C@@H]1C[C@@H](O)CN1

What was measured:
[1] = Rabbit, cited from earlier work
[2] = cited from earlier work
[3] = Volume of distribution after i.v. administration (literature); details: in vivo, iv, Rat, calculated using previously published data ref 17, read-out: Vd ss
Source text: TABLE 7 Volume of distribution for SCY-078 and echinocandins after i.v. administration | column: Vd ss (liters/kg)^a / Anidulafungin

[4] = Human, cited from earlier work
[5] = Mouse, cited from earlier work
[6] = tested on: C. albicans MY1055; assay: Immediate treatment murine model of disseminated candidiasis
[7] = Rat, i.v. ref 26; cited from earlier work
[8] = parameters: method as in ref 26 = [26]; 26. Yamato Y , Kaneko H , Hashimoto T , Katashima M , Ishibashi K , Kawamura A , Terakawa M , Kagayama A 2002 Pharmacokinetics of the anti-fungal drug micafungin in mice, rats and dogs, and its in vit; details: Dog, i.v. ref 26; cited from earlier work

For CCCCCOc1ccc(-c2ccc(-c3ccc(C(=O)N[C@H]4C[C@@H](O)[C@@H](O)NC(=O)[C@@H]5[C@@H](O)[C@@H](C)CN5C(=O)[C@H]([C@@H](C)O)NC(=O)[C@H]([C@H](O)[C@@H](O)c5ccc(O)cc5)NC(=O)[C@@H]5C[C@@H](O)CN5C(=O)[C@H]([C@@H](C)O)NC4=O)cc3)cc2)cc1 [Anidulafungin, anidulafungin] ({pTerphenylCO(4''-OnC5H11)}-[Orn(4R-OH,5R-OH)]T[Hyp][hTyr(3S-OH,4S-OH)]T[Pro(3S-OH,4S-Me)]; lactam 1-C), the Vd ss ([1]; i.v. ref 28) is listed as 0.93–1.23 ([28]) liters/kg, the Kidney/plasma ratio ([2]; after i.v. delivery to rodents ref 17) is listed as 10.7 and the Vd [3] is listed as 2.16 L/kg. For the same compound, the Vd ss ([4]; i.v. ref 31) was 0.5 L/kg.
For CC[C@H](C)C[C@H](C)CCCCCCCCC(=O)N[C@H]1C[C@@H](O)[C@@H](NCCN)NC(=O)[C@@H]2[C@@H](O)CCN2C(=O)[C@H]([C@H](O)CCN)NC(=O)[C@H]([C@H](O)[C@@H](O)c2ccc(O)cc2)NC(=O)[C@@H]2C[C@@H](O)CN2C(=O)[C@H]([C@@H](C)O)NC1=O [Caspofungin, caspofungin], the Vd ss ([1]; i.v. ref 25) is given as 0.28 L/kg, the Vd ss ([1]; i.v. ref 29) is given as 0.26 L/kg and the Kidney/plasma ratio ([2]; after i.v. delivery to rodents ref 22) is given as “approximately 2.9”. For the same compound, the Kidney/plasma ratio ([2]; after i.v. delivery to rodents, based on the total radioactivity over 24 h ref 23) was 2.8, the Vd ss ([5]; i.v. ref 22) was 0.25 L/kg and the Vd ss ([5]; i.v. ref 25) was 0.45 L/kg. For the same compound, the Vd ss ([4]; i.v. ref 31) was 0.14 ([31]) liters/kg and the “Dose effective in clearing kidney fungal burden” value ([6]; administered intraperitoneally twice daily (data not shown)) was at least 0.125 mg/kg.
In the case of OC(Cn1cncn1)(Cn1cncn1)c1ccc(F)cc1F [FLU, fluconazole, reference compound], the “Clearance of fungal infection” value ([6]; up to 5 mg/kg p.o. BID) is reported as “did not result in clearance of fungal infection in any of the animals tested”.
For CCCCCOc1ccc(-c2cc(-c3ccc(C(=O)N[C@H]4C[C@@H](O)[C@@H](O)NC(=O)[C@@H]5[C@@H](O)[C@@H](C)CN5C(=O)[C@H]([C@H](O)CC(N)=O)NC(=O)[C@H]([C@H](O)[C@@H](O)c5ccc(O)c(OS(=O)(=O)O)c5)NC(=O)[C@@H]5C[C@@H](O)CN5C(=O)[C@H]([C@@H](C)O)NC4=O)cc3)no2)cc1 [Micafungin, micafungin] (X1-[Orn(4R-OH,5R-OH)]T[Hyp][hTyr(3S-OH,4S-OH,3'-OSO3H)][Gln(3R-OH)][Pro(3S-OH,4S-Me)]; lactam 1-C), the Vd ss [7] is given as 0.42–0.56 ([26]) liters/kg, the Vd ss [8] is given as 0.23–0.25 ([26]) liters/kg and the Vd ss ([1]; i.v. ref 30) is given as 0.313 ([30]) liters/kg. For the same compound, the Kidney/plasma ratio ([2]; after i.v. delivery to rodents ref 24) was 3.4, the Vd ss ([5]; i.v. ref 26) was 0.38–0.49 ([26]) liters/kg and the Vd ss ([4]; i.v. ref 31) was 0.21 to 0.24 L/kg. For the same compound, the Vd ss ([4]; i.v. ref 32) was 0.26 L/kg.
